Test results published in patent publication US20160223562A1, “Method for Determining the Concentration of a Peptide” (JPT Peptide Technologies GmbH, priority 2010, published 2016).
Square brackets hold non-standard residues; d marks the D form. Peptide text beside a SMILES is read from it. Tyr(3-NO2) = N[C@@H](Cc1ccc(O)c([N+](=O)[O-])c1)C(=O)O

What follows are compounds tested against T1, Trypsin (Sus scrofa, UniProt P00761) (assay: Trypsin cleavage of N-terminal quantification tag Ac-nitroTyr-SGK- from peptides, LC-MS with UV detection at 350 nm). Conditions: trypsin protocol of example 9, 24 h, RT.
T1 construct: purchased Promega Corporation V511
T1 sequence (P00761 9-231): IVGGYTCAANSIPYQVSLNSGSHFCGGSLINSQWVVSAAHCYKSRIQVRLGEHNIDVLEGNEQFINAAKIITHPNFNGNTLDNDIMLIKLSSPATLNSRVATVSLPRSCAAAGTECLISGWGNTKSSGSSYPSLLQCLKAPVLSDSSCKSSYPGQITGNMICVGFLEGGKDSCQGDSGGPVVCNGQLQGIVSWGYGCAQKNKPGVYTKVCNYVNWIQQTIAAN
Assay type: biochemical
Procedure: Trypsin Activation: Trypsin (20 μg, sequencing grade modified trypsin, Promega Corporation, Madison, Wis., USA, catalogue no. V511, specific activity 16.965 u/mg) was dissolved in Trypsin resuspension buffer (200 μL, Promega, catalogue no. V542A, ingredient 50 mM acetic acid) and incubated for 15 min at 37° C.
Reduction and alkylation: The peptide (approx. 0.05 mg) was dissolved in 1 M urea and 100 mM fresh ammonium hydrogen carbonate (300 μL). TCEP (Tris(2-carboxyethyl) phosphine hydrochloride, 0.2 M, 7.5 μL, final concentration 5 mM) was added and the solution incubated at 37° C. for 1 h. After addition of iodoacetamide (0.5 M, 6.0 μL, final concentration 10 mM) the solution was incubated at RT in the dark for another 30 min. Digestion: The sample was digested with activated Trypsin solution (10 μL per well, 1.0 μg, resulting enzyme/substrate ratio 1:50) over night at RT. To stop the digestion, HCl (2 M, 8 μL final concentration 50 mM) and TFA (3.2 μL, final concentration 1%, pH<2) were added. Finally, the sample was analyzed by LC-MS at 350 nm.
38 peptides carrying the N-terminal quantification-tag Ac-nitroTyr-SGK-(SEQ ID NO:32) were synthesized by SPOT synthesis (Table 3). The peptide sequences are based on two different amino acid sequences, which in each case contain 19 different amino acids N-terminally attached to lysine (the 20 naturally occurring amino acids except cysteine).
All peptides were subjected to the same trypsin cleavage protocol as described in example 9. It is apparent that the quantification tag is efficiently cleaved (>99%) in nearly all cases.

Kusebauch 24 h, RT: Percent Cleavage of Tag [by UV350 - Peptide-Tag vs. Tag] [%]	SMILES
100.0	CC(=O)N[C@@H](Cc1ccc(O)c([N+](=O)[O-])c1)C(=O)N[C@@H](CO)C(=O)NCC(=O)N[C@@H](CCCCN)C(=O)N[C@@H](CCC(=O)O)C(=O)N[C@H](C(=O)N[C@@H](C)C(=O)N[C@@H](CC(C)C)C(=O)N[C@@H](CO)C(=O)N[C@@H](CC(C)C)C(=O)N[C@@H](CC(=O)O)C(=O)N[C@@H](CC(=O)O)C(=O)N[C@H](C(=O)N[C@@H](CCCCN)C(=O)O)C(C)C)C(C)C [Peptide 24, Ac-nitroTyr-SGKEVALSLDDV-K-OH] (Ac-[Tyr(3-NO2)]SGKEVALSLDDVK-OH)
100.0	CC(=O)N[C@@H](Cc1ccc(O)c([N+](=O)[O-])c1)C(=O)N[C@@H](CO)C(=O)NCC(=O)N[C@@H](CCCCN)C(=O)N[C@@H](Cc1ccccc1)C(=O)N[C@H](C(=O)N[C@@H](C)C(=O)N[C@@H](CC(C)C)C(=O)N[C@@H](CO)C(=O)N[C@@H](CC(C)C)C(=O)N[C@@H](CC(=O)O)C(=O)N[C@@H](CC(=O)O)C(=O)N[C@H](C(=O)N[C@@H](CCCCN)C(=O)O)C(C)C)C(C)C [Peptide 25, Ac-nitroTyr-SGKFVALSLDDV-K-OH] (Ac-[Tyr(3-NO2)]SGKFVALSLDDVK-OH)
99.3	CC(=O)N[C@@H](Cc1ccc(O)c([N+](=O)[O-])c1)C(=O)N[C@@H](CO)C(=O)NCC(=O)N[C@@H](CCCCN)C(=O)NCC(=O)N[C@H](C(=O)N[C@@H](C)C(=O)N[C@@H](CC(C)C)C(=O)N[C@@H](CO)C(=O)N[C@@H](CC(C)C)C(=O)N[C@@H](CC(=O)O)C(=O)N[C@@H](CC(=O)O)C(=O)N[C@H](C(=O)N[C@@H](CCCCN)C(=O)O)C(C)C)C(C)C [Peptide 26, Ac-nitroTyr-SGKGVALSLDDV-K-OH] (Ac-[Tyr(3-NO2)]SGKGVALSLDDVK-OH)
100.0	CC(=O)N[C@@H](Cc1ccc(O)c([N+](=O)[O-])c1)C(=O)N[C@@H](CO)C(=O)NCC(=O)N[C@@H](CCCCN)C(=O)N[C@@H](Cc1c[nH]cn1)C(=O)N[C@H](C(=O)N[C@@H](C)C(=O)N[C@@H](CC(C)C)C(=O)N[C@@H](CO)C(=O)N[C@@H](CC(C)C)C(=O)N[C@@H](CC(=O)O)C(=O)N[C@@H](CC(=O)O)C(=O)N[C@H](C(=O)N[C@@H](CCCCN)C(=O)O)C(C)C)C(C)C [Peptide 27, Ac-nitroTyr-SGKHVALSLDDV-K-OH] (Ac-[Tyr(3-NO2)]SGKHVALSLDDVK-OH)
100.0	CC[C@H](C)[C@H](NC(=O)[C@H](CCCCN)NC(=O)CNC(=O)[C@H](CO)NC(=O)[C@H](Cc1ccc(O)c([N+](=O)[O-])c1)NC(C)=O)C(=O)N[C@H](C(=O)N[C@@H](C)C(=O)N[C@@H](CC(C)C)C(=O)N[C@@H](CO)C(=O)N[C@@H](CC(C)C)C(=O)N[C@@H](CC(=O)O)C(=O)N[C@@H](CC(=O)O)C(=O)N[C@H](C(=O)N[C@@H](CCCCN)C(=O)O)C(C)C)C(C)C [Peptide 28, Ac-nitroTyr-SGKIVALSLDDV-K-OH] (Ac-[Tyr(3-NO2)]SGKIVALSLDDVK-OH)
100.0	CC(=O)N[C@@H](Cc1ccc(O)c([N+](=O)[O-])c1)C(=O)N[C@@H](CO)C(=O)NCC(=O)N[C@@H](CCCCN)C(=O)N[C@@H](CCCCN)C(=O)N[C@H](C(=O)N[C@@H](C)C(=O)N[C@@H](CC(C)C)C(=O)N[C@@H](CO)C(=O)N[C@@H](CC(C)C)C(=O)N[C@@H](CC(=O)O)C(=O)N[C@@H](CC(=O)O)C(=O)N[C@H](C(=O)N[C@@H](CCCCN)C(=O)O)C(C)C)C(C)C [Peptide 29, Ac-nitroTyr-SGKKVALSLDDV-K-OH] (Ac-[Tyr(3-NO2)]SGKKVALSLDDVK-OH)
100.0	CC(=O)N[C@@H](Cc1ccc(O)c([N+](=O)[O-])c1)C(=O)N[C@@H](CO)C(=O)NCC(=O)N[C@@H](CCCCN)C(=O)N[C@@H](CC(C)C)C(=O)N[C@H](C(=O)N[C@@H](C)C(=O)N[C@@H](CC(C)C)C(=O)N[C@@H](CO)C(=O)N[C@@H](CC(C)C)C(=O)N[C@@H](CC(=O)O)C(=O)N[C@@H](CC(=O)O)C(=O)N[C@H](C(=O)N[C@@H](CCCCN)C(=O)O)C(C)C)C(C)C [Peptide 30, Ac-nitroTyr-SGKLVALSLDDV-K-OH] (Ac-[Tyr(3-NO2)]SGKLVALSLDDVK-OH)
100.0	CSCC[C@H](NC(=O)[C@H](CCCCN)NC(=O)CNC(=O)[C@H](CO)NC(=O)[C@H](Cc1ccc(O)c([N+](=O)[O-])c1)NC(C)=O)C(=O)N[C@H](C(=O)N[C@@H](C)C(=O)N[C@@H](CC(C)C)C(=O)N[C@@H](CO)C(=O)N[C@@H](CC(C)C)C(=O)N[C@@H](CC(=O)O)C(=O)N[C@@H](CC(=O)O)C(=O)N[C@H](C(=O)N[C@@H](CCCCN)C(=O)O)C(C)C)C(C)C [Peptide 31, Ac-nitroTyr-SGKMVALSLDDV-K-OH] (Ac-[Tyr(3-NO2)]SGKMVALSLDDVK-OH)
100.0	CC(=O)N[C@@H](Cc1ccc(O)c([N+](=O)[O-])c1)C(=O)N[C@@H](CO)C(=O)NCC(=O)N[C@@H](CCCCN)C(=O)N[C@@H](CC(N)=O)C(=O)N[C@H](C(=O)N[C@@H](C)C(=O)N[C@@H](CC(C)C)C(=O)N[C@@H](CO)C(=O)N[C@@H](CC(C)C)C(=O)N[C@@H](CC(=O)O)C(=O)N[C@@H](CC(=O)O)C(=O)N[C@H](C(=O)N[C@@H](CCCCN)C(=O)O)C(C)C)C(C)C [Peptide 32, Ac-nitroTyr-SGKNVALSLDDV-K-OH] (Ac-[Tyr(3-NO2)]SGKNVALSLDDVK-OH)
5.4	CC(=O)N[C@@H](Cc1ccc(O)c([N+](=O)[O-])c1)C(=O)N[C@@H](CO)C(=O)NCC(=O)N[C@@H](CCCCN)C(=O)N1CCC[C@H]1C(=O)N[C@H](C(=O)N[C@@H](C)C(=O)N[C@@H](CC(C)C)C(=O)N[C@@H](CO)C(=O)N[C@@H](CC(C)C)C(=O)N[C@@H](CC(=O)O)C(=O)N[C@@H](CC(=O)O)C(=O)N[C@H](C(=O)N[C@@H](CCCCN)C(=O)O)C(C)C)C(C)C [Peptide 33, Ac-nitroTyr-SGKPVALSLDDV-K-OH] (Ac-[Tyr(3-NO2)]SGKPVALSLDDVK-OH)
100.0	CC(=O)N[C@@H](Cc1ccc(O)c([N+](=O)[O-])c1)C(=O)N[C@@H](CO)C(=O)NCC(=O)N[C@@H](CCCCN)C(=O)N[C@@H](CCC(N)=O)C(=O)N[C@H](C(=O)N[C@@H](C)C(=O)N[C@@H](CC(C)C)C(=O)N[C@@H](CO)C(=O)N[C@@H](CC(C)C)C(=O)N[C@@H](CC(=O)O)C(=O)N[C@@H](CC(=O)O)C(=O)N[C@H](C(=O)N[C@@H](CCCCN)C(=O)O)C(C)C)C(C)C [Peptide 34, Ac-nitroTyr-SGKQVALSLDDV-K-OH] (Ac-[Tyr(3-NO2)]SGKQVALSLDDVK-OH)
100.0	CC(=O)N[C@@H](Cc1ccc(O)c([N+](=O)[O-])c1)C(=O)N[C@@H](CO)C(=O)NCC(=O)N[C@@H](CCCCN)C(=O)N[C@@H](CCCNC(=N)N)C(=O)N[C@H](C(=O)N[C@@H](C)C(=O)N[C@@H](CC(C)C)C(=O)N[C@@H](CO)C(=O)N[C@@H](CC(C)C)C(=O)N[C@@H](CC(=O)O)C(=O)N[C@@H](CC(=O)O)C(=O)N[C@H](C(=O)N[C@@H](CCCCN)C(=O)O)C(C)C)C(C)C [Peptide 35, Ac-nitroTyr-SGKRVALSLDDV-K-OH] (Ac-[Tyr(3-NO2)]SGKRVALSLDDVK-OH)
100.0	CC(=O)N[C@@H](Cc1ccc(O)c([N+](=O)[O-])c1)C(=O)N[C@@H](CO)C(=O)NCC(=O)N[C@@H](CCCCN)C(=O)N[C@@H](CO)C(=O)N[C@H](C(=O)N[C@@H](C)C(=O)N[C@@H](CC(C)C)C(=O)N[C@@H](CO)C(=O)N[C@@H](CC(C)C)C(=O)N[C@@H](CC(=O)O)C(=O)N[C@@H](CC(=O)O)C(=O)N[C@H](C(=O)N[C@@H](CCCCN)C(=O)O)C(C)C)C(C)C [Peptide 36, Ac-nitroTyr-SGKSVALSLDDV-K-OH] (Ac-[Tyr(3-NO2)]SGKSVALSLDDVK-OH)
100.0	CC(=O)N[C@@H](Cc1ccc(O)c([N+](=O)[O-])c1)C(=O)N[C@@H](CO)C(=O)NCC(=O)N[C@@H](CCCCN)C(=O)N[C@H](C(=O)N[C@H](C(=O)N[C@@H](C)C(=O)N[C@@H](CC(C)C)C(=O)N[C@@H](CO)C(=O)N[C@@H](CC(C)C)C(=O)N[C@@H](CC(=O)O)C(=O)N[C@@H](CC(=O)O)C(=O)N[C@H](C(=O)N[C@@H](CCCCN)C(=O)O)C(C)C)C(C)C)[C@@H](C)O [Peptide 37, Ac-nitroTyr-SGKTVALSLDDV-K-OH] (Ac-[Tyr(3-NO2)]SGKTVALSLDDVK-OH)
100.0	CC(=O)N[C@@H](Cc1ccc(O)c([N+](=O)[O-])c1)C(=O)N[C@@H](CO)C(=O)NCC(=O)N[C@@H](CCCCN)C(=O)N[C@H](C(=O)N[C@H](C(=O)N[C@@H](C)C(=O)N[C@@H](CC(C)C)C(=O)N[C@@H](CO)C(=O)N[C@@H](CC(C)C)C(=O)N[C@@H](CC(=O)O)C(=O)N[C@@H](CC(=O)O)C(=O)N[C@H](C(=O)N[C@@H](CCCCN)C(=O)O)C(C)C)C(C)C)C(C)C [Peptide 38, Ac-nitroTyr-SGKVVALSLDDV-K-OH] (Ac-[Tyr(3-NO2)]SGKVVALSLDDVK-OH)
